In assay [1] the target is T1, UP-1 mutant receptor (hPR) (Homo sapiens, UniProt P06401).
T1 construct: the wild type receptor is truncated by 54 authentic amino acids and 12 novel amino acids are added at the C-terminus; expressed in transfected cells; host or cells: Saccharomyces cerevisiae BJ3505 transformed with the UP-1 plasmid
T1 sequence (P06401 with tags, fused parts or gaps): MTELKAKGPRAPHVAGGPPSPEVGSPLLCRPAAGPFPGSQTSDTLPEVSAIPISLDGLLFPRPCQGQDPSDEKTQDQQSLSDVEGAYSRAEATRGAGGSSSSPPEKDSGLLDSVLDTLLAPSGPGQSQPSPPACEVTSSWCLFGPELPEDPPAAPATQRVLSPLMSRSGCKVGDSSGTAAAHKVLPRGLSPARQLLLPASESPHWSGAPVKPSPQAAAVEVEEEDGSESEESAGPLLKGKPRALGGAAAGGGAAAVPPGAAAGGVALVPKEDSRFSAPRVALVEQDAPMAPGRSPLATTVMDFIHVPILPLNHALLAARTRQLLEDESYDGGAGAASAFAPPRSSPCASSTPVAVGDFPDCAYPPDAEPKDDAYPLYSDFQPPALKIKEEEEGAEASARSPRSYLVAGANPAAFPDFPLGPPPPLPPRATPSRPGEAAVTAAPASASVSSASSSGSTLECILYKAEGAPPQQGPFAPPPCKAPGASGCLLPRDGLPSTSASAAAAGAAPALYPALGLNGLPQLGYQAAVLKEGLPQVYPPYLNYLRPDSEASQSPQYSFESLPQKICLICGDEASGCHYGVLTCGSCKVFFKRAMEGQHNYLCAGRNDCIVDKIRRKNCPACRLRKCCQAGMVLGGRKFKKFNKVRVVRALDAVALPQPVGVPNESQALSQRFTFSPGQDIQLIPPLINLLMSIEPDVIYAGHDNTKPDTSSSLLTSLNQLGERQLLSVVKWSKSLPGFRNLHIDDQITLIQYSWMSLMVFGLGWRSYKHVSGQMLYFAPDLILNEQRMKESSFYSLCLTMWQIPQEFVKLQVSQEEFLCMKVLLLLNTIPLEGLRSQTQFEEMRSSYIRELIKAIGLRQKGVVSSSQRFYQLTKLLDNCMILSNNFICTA
Description: Yeast transcription assay (β-galactosidase activity). The format is cell-based. Conditions: for activation of mutant receptor: different concentrations (FIG. 5A); for transcriptional activity (in words): 1 μM, 4 hours. On the procedure: (§1) Saccharomyces cerevisiae cells containing YEphPRB and the reporter plasmid were grown overnight at 30° C. in minimal media containing 2% glucose. The cells were subcultured in fresh medium and allowed to grow until early mid-log phase (O.D.600nm=1.0). Induction of receptor was initiated by the addition of 100 μM copper sulfate to the culture. Cells were harvested by centrifugation at 1,500 ×g for 10 minutes and resuspended in the appropriate buffer. This and all subsequent steps of analysis of the yeast extracts were done at 4° C.
(§2) When the cell density reached O.D.600nm=1.0, hormones were added to the cultures.
(§3) The plate assays used to identify the receptor mutants are qualitative in nature. To further characterize the properties of UP-1, the activity of the receptor mutants was compared with that of the wild type receptor in a transcription assay. […] The β-galactosidase activity in the cell cytosol was then measured.

The target in assay [2] is T2, wild type receptor (hPR-B) (Homo sapiens, UniProt P06401).
T2 construct: expressed in transfected cells; host or cells: Saccharomyces cerevisiae BJ3505 transformed with YEphPR-B
T2 sequence (P06401 1-933): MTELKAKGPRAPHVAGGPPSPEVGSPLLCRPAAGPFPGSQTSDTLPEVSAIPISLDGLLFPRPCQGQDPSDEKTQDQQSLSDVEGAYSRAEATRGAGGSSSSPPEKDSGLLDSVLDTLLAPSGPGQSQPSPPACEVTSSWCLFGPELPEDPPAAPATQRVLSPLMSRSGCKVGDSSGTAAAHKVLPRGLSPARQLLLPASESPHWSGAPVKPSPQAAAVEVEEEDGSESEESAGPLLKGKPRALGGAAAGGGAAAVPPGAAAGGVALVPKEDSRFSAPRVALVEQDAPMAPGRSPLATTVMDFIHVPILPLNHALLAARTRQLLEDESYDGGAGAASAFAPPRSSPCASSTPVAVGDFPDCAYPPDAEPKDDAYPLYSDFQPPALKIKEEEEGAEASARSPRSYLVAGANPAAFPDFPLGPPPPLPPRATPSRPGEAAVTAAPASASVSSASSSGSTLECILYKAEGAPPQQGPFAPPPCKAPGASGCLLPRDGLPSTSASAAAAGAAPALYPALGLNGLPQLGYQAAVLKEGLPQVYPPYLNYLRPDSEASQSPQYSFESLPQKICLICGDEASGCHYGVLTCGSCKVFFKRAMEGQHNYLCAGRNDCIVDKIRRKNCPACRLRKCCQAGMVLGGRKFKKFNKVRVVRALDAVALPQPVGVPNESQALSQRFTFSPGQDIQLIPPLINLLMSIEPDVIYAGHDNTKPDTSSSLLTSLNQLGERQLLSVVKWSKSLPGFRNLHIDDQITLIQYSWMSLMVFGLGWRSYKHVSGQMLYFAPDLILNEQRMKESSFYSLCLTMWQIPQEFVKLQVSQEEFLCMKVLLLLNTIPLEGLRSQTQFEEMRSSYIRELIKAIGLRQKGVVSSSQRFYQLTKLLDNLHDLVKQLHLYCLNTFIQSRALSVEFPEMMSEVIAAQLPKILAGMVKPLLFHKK
The assay is described as above. The format is cell-based, yeast (Saccharomyces cerevisiae). Conditions: 1 μM; for transcriptional activity (in words): 4 hours. The procedure: as §1, §2, §3

For the next assay, the target named is T3, wild type PR (phPR-B) (Homo sapiens, UniProt P06401).
T3 sequence (P06401 1-933): T2 sequence (P06401 1-933)
Description: Transient transfection CAT assay ([…]) in HeLa cells. Conditions: 10^−7M, 48 hours. Type of assay: cell-based. The procedure:
(§4) Five μg of chloramphenicol acetyltransferase (CAT) reporter plasmid, containing two copies of a PRE/GRE from the tyrosine amino transferase gene linked to the thymidine kinase promoter ([…]), were used in transient cotransfection experiments together with 5 μg of wild type or mutant receptor DNAs.
(§5) CAT assays were performed as described above. In panel (B), CV-1 cells were transiently transfected as in (A).

The next assay has as its target T4, 891 mutant (phPR-B891) (Homo sapiens, UniProt P06401).
T4 construct: YEphPRB891, containing a stop codon at amino acid 892; expressed in transfected cells; host or cells: HeLa cells (A16)
T4 sequence (P06401 1-891): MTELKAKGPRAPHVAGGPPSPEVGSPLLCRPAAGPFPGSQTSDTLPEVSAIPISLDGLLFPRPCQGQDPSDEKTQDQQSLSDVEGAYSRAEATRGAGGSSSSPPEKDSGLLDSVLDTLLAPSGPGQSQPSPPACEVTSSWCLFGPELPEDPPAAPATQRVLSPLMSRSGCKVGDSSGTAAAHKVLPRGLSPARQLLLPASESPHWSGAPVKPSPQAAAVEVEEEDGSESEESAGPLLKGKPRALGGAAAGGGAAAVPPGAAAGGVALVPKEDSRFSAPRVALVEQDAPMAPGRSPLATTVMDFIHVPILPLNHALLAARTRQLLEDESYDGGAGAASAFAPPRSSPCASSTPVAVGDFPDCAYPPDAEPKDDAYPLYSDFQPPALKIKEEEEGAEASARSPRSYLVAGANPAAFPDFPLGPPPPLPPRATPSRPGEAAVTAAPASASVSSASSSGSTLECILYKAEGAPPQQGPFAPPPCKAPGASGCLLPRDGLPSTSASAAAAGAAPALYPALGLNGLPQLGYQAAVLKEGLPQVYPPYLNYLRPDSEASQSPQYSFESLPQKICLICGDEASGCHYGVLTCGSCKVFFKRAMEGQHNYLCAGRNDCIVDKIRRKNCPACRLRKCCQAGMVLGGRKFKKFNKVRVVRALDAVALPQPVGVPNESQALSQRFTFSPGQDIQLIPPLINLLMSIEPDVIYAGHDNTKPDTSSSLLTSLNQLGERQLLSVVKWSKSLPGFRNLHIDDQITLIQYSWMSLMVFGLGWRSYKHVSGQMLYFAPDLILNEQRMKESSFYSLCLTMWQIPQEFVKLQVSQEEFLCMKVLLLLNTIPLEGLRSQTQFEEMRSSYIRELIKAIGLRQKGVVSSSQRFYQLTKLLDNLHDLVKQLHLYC
The assay is described as above. Type of assay: cell-based. Conditions: 10^−7M. The procedure:
as §4, §5

Assay [3] addresses T5, wild type receptor (phPR-B) (Homo sapiens, UniProt P06401).
T5 sequence (P06401 1-933): T2 sequence (P06401 1-933)
Description: Transient transfection CAT assay in CV-1 cells. Type of assay: cell-based, monkey. On the procedure: as §4, §5
Cell-type specific factors can influence the activity of the transactivating domains of steroid receptors. In order to evaluate this possibility, wild type and mutant receptors were transfected into CV-1 cells.

The target of assay [4] is T6, YEphPR-B879 truncated receptor (Homo sapiens, UniProt P06401).
T6 construct: YEphPR-B879, containing a stop codon corresponding to amino acid 880; expressed in transfected cells; host or cells: Saccharomyces cerevisiae (yeast)
T6 sequence (P06401 1-879): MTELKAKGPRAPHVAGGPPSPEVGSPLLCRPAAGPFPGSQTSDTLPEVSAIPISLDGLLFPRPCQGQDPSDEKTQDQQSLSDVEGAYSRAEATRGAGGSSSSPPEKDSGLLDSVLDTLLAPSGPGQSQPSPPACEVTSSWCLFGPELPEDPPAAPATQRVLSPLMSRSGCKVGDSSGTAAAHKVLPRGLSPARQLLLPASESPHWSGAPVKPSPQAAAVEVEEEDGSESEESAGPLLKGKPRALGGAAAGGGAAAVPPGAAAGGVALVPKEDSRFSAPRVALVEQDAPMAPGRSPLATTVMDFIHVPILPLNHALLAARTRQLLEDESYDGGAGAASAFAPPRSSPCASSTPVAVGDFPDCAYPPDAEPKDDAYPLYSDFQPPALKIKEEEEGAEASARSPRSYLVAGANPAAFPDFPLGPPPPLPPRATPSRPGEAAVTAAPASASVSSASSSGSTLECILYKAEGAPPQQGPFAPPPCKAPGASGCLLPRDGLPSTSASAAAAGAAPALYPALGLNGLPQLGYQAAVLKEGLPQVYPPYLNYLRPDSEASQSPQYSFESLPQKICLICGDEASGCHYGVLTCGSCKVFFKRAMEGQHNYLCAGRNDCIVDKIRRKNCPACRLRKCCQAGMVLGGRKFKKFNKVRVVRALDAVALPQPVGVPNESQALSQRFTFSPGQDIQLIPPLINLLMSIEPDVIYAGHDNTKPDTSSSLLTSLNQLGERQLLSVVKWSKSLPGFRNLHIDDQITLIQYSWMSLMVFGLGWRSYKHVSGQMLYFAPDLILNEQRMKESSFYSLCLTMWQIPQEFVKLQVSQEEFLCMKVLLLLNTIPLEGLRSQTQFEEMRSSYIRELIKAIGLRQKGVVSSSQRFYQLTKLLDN
Put plainly: Yeast transcription assay. The format is cell-based. The procedure:
as §2
(§6) CJ236 cells were infected with mpPR90 (an M13 plasmid containing hPR cDNA).
(§7) Yeast cells were grown in the presence of 100 μM CuSO4. Transcriptional analysis was done as described above. Experiments were done in triplicate and transcriptional activities were normalized with respect to protein.

Assay [5] concerns the target T7, YEphPRB891 truncated receptor (Homo sapiens, UniProt P06401).
T7 construct: YEphPRB891, containing a stop codon at amino acid 892; expressed in transfected cells; host or cells: Saccharomyces cerevisiae (yeast)
T7 sequence (P06401 1-891): T4 sequence (P06401 1-891)
Description: Yeast transcription assay. Type of assay: cell-based. On the procedure: as §2, §6, §7

Consider eight molecules from patent US6416998B1, “Plasmid encoding a modified steroid hormone” (Baylor College of Medicine, priority 1992, dated 2002).

Each structure is given as a SMILES string.

Turning to `CN(C)c1ccc(C2CC3(C)C(CCC34CCCO4)C3CCC4=CC(=O)CCC4=C23)cc1` (stereo not drawn) [Org31376, (11β,14β,17α)-4′,5′-dihydro-11-(4-dimethylaminophenyl)-[spiroestra-4,9-diene-17,2′(3′H)-furan]-3-one], in assay [1], the “activation of mutant receptor” value was “activated”.
On the same count and under the same terms, the value for `C[C@H]1CC2=CC(=O)CCC2=C2[C@@H]1[C@@H]1CC[C@@]3(CCCO3)[C@@]1(C)C[C@@H]2c1ccc(N(C)C)cc1` [Org31806, (7β,11β,17β)-11-(4-dimethylaminophenyl)-7-methyl-4′,5′-dihydrospiro[ester-4,9-diene-17,2′(3′H)-furan]-3-one] was “activated”.
Turning to `CCC(=O)[C@@]1(C)CC[C@H]2[C@@H]3CCC4=CC(=O)CCC4=C3CC[C@@]21C` [R5020], the “transcriptional activity (in words)” value in assay [1] is reported as “had no effect”.
Take `C[C@]12CCC(=O)C=C1CC[C@@H]1[C@@H]2[C@@H](O)C[C@@]2(C)[C@H]1CC[C@]2(O)C(=O)CO` [cortisol]: the “transcriptional activity (in words)” value in assay [1] and in assay [2] was “inactive” throughout.
Turning to `C[C@@H]1C[C@H]2[C@@H]3CCC4=CC(=O)C=C[C@]4(C)[C@@]3(F)[C@@H](O)C[C@]2(C)[C@@]1(O)C(=O)CO` [dexamethasone], the “transcriptional activity (in words)” value in assay [1] and in assay [2] was “inactive” in each case.
For `C[C@]12CC[C@@H]3c4ccc(O)cc4CC[C@H]3[C@@H]1CC[C@@H]2O` [estradiol], the “transcriptional activity (in words)” value in assay [1] and in assay [2] was “inactive” throughout.
On to `COc1ccc2c(c1)CCC(c1ccccc1)=C2c1ccc(OCCN2CCCC2)cc1` [nafoxidine], for which the “transcriptional activity (in words)” value in assay [1] and in assay [2] was “inactive” each time.
With `CC(=O)[C@H]1CC[C@H]2[C@@H]3CCC4=CC(=O)CC[C@]4(C)[C@H]3CC[C@]12C` [progesterone], the “induction of transcription of CAT gene reporter” value at wild type PR (phPR-B) is 3- to 4 fold. Further, at 891 mutant (phPR-B891), the “induction of CAT activity” value was “no activity”. For the same molecule, the “receptor activation (CAT)” value in assay [3] is listed as “activated”. The induction of transcription entry in assay [2] is “greater than 60 fold”. In addition, the activation of transcription entry in assay [4] and in assay [5] was “inactive” in each case.
